The conditions of data set [1]: 20° C.; cited from earlier work.
Data set [2] can be described thus: Solubility of asenapine maleate in a variety of solvents. The note with it: organic solvent or mixture, read-out: solubility of asenapine maleate, Concentration. It is filed as physicochemical. The procedure: The asenapine or a pharmaceutically acceptable salt thereof is dissolved in the organic phase or dispersed as a solid in the organic phase. In order to effectively dissolve the asenapine or a pharmaceutically acceptable salt thereof in the organic phase, a solution of the active principle in a solvent S2 can be provided, and this solution can be combined with the solution of the polymer in the organic solvent S1. It will be understood that, in this case, the solvents S1 and S2 should be different solvents. It is also possible to add the active principle to the solvent S2 in an amount that only a part of it is dissolved in S2, and a part of it remains dispersed as a solid in the solvent S2. Using the process described herein, the active principle can also be encapsulated/embedded in the polymer at a high efficiency in this case. […] Nevertheless, the following table summarizes the solubility of asenapine maleate in a variety of solvents.

For data set [3] the following is noted: cited from earlier work.
In data set [4] the test system is muscarinic receptors. The note with it: cited from earlier work.
For data set [5], the system named is serotonin receptors. Conditions: rank among receptor classes; cited from earlier work.

Where a name gives a salt, the structure may show the parent alone. Read-outs that look alike come from different tables or passages of the source.

As for `CC(C)=O` [acetone], the solubility in water entry in data set [1] is “soluble”.
Regarding `CN1CC2c3ccccc3Oc3ccc(Cl)cc3C2C1` (stereo not shown) [asenapine maleate], the solubility was 700 mg/mL in data set [2] (DMSO); 100 mg/mL in data set [2] (THF); 50 mg/mL in data set [2] (solvent EMK); 700 mg/mL in data set [2] (solvent NMP); 67 mg/mL in data set [2] (solvent acetone); 500 mg/mL in data set [2] (solvent benzyl alcohol). Also, the solubility is 7 mg/mL in data set [2] (solvent benzyl benzoate); 7 mg/mL in data set [2] (solvent dimethycarbonate); 500 mg/mL in data set [2] (solvent dimethylacetamide); 100 mg/mL in data set [2] (solvent ethanol); 10 mg/mL in data set [2] (solvent ethyl acetate); 10 mg/mL in data set [2] (solvent ethyl benzoate). In addition, the solubility in data set [2] (solvent ethyl formate) turned out to be 100 mg/mL; in data set [2] (solvent glycofurol) it was 270 mg/mL; in data set [2] (solvent isopropanol) it was 7 mg/mL; in data set [2] (solvent isopropyl acetate), 9 mg/mL; in data set [2] (solvent isopropyl formate), 100 mg/mL; in data set [2] (solvent methyl acetate), 25 mg/mL. Besides, in data set [2] (solvent methyl benzoate), the solubility was 20 mg/mL.
What is called bioavailability is the share of a dose that reaches the circulation, judged against a reference dose that is usually intravenous. Take `CN1CC2c3ccccc3Oc3ccc(Cl)cc3C2C1` (stereo not drawn) [asenapine, trans-5-chloro-2,3,3a,12b-tetrahydro-2-methyl-1-H-dibenz[2,3:6,7]oxepino[4,5-c]pyrrole]: the bioavailability in data set [3] (oral formulations) was 2%; in data set [3] (sublingual tablets), 35%. Besides, in data set [4], the “affinity for muscarinic receptors” value is “minimal affinity”. Besides, in data set [5], the “affinity for blocking serotonin receptors” value is given as “highest affinity”.
For the compound glycofurol, the solubility in water result in data set [1] was “soluble”.

(Values after patent publication US20170231957A1, “INJECTABLE FORMULATIONS OF ASENAPINE” (ALRISE Biosystems GmbH, priority 2014, published 2017).)
